Here are results for 14 molecules from article PMC2014795 (PLoS Pathogens, 2007).

In general, IC50 refers to the point on the concentration scale where inhibition reaches its midpoint.

This assay deals with T1, HLA-DR1 (DRB1*0101) (Homo sapiens, UniProt P01903+P01911, A100R/D57E/F55L/F60I/F76Y/I96L/L162R/M171V/P40L/Q125E/R42F/V115G/Y59C).
T1 construct: the extracellular portion of HLA-DR1 was produced by expression of isolated subunits in Escherichia coli inclusion bodies; made in house
In words: biochemical. It counts as binding.
Take `CC[C@H](C)[C@H](NC(=O)[C@H](CCSC)NC(=O)[C@@H](N)Cc1ccc(O)cc1)C(=O)N[C@H](C(=O)N[C@H](C(=O)NCC(=O)N[C@H](C(=O)N[C@H](C(=O)N[C@H](C(=O)N[C@@H](CC(C)C)C(=O)N[C@@H](C)C(=O)N[C@@H](C)C(=O)N[C@@H](CC(C)C)C(=O)N[C@@H](Cc1ccccc1)C(=O)N[C@@H](CCSC)C(=O)N[C@@H](Cc1ccc(O)cc1)C(=O)N[C@@H](Cc1ccc(O)cc1)C(=O)N[C@@H](C)C(=O)N[C@@H](CCCCN)C(=O)N[C@@H](CCCNC(=N)N)C(=O)N[C@@H](CCSC)C(=O)O)[C@@H](C)CC)[C@@H](C)CC)C(C)C)[C@@H](C)CC)C(C)C` [Peptide 317]: the IC50 amounted to 675 ± 185 nM.

The molecule `CC[C@H](C)[C@H](NC(=O)[C@H](Cc1ccccc1)NC(=O)[C@H](CCC(=O)O)NC(=O)[C@H](CC(N)=O)NC(=O)[C@@H](N)[C@@H](C)O)C(=O)N[C@@H](CO)C(=O)N[C@@H](Cc1ccccc1)C(=O)N[C@@H](CC(C)C)C(=O)N[C@@H](CC(C)C)C(=O)N[C@@H](CC(C)C)C(=O)N[C@H](C(=O)N[C@@H](CO)C(=O)N[C@H](C(=O)N1CCC[C@H]1C(=O)N[C@H](C(=O)N[C@@H](Cc1ccc(O)cc1)C(=O)N[C@@H](CC(N)=O)C(=O)N[C@H](C(=O)N[C@@H](CC(C)C)C(=O)N[C@@H](Cc1ccccc1)C(=O)N[C@@H](Cc1c[nH]c2ccccc12)C(=O)O)[C@@H](C)CC)[C@@H](C)CC)[C@@H](C)CC)[C@@H](C)O` [Peptide 313] registered an IC50 of 510 ± 110 nM.

Turning to `CC[C@H](C)[C@H](NC(=O)[C@H](CCSC)NC(=O)[C@H](Cc1ccc(O)cc1)NC(=O)[C@H](Cc1ccccc1)NC(=O)[C@H](CCC(N)=O)NC(=O)[C@@H](NC(=O)CNC(=O)[C@@H](NC(=O)CN)[C@@H](C)O)C(C)C)C(=O)N[C@H](C(=O)N[C@H](C(=O)NCC(=O)N[C@H](C(=O)N[C@H](C(=O)N[C@H](C(=O)N[C@@H](CC(C)C)C(=O)N[C@@H](C)C(=O)N[C@@H](C)C(=O)N[C@@H](CC(C)C)C(=O)N[C@@H](Cc1ccccc1)C(=O)N[C@@H](CCSC)C(=O)O)[C@@H](C)CC)[C@@H](C)CC)C(C)C)[C@@H](C)CC)C(C)C` [Peptide 312], half-maximal inhibition (IC50) required 620 ± 110 nM.

Molecule `CC[C@H](C)[C@H](NC(=O)[C@H](CO)NC(=O)[C@H](CC(N)=O)NC(=O)[C@H](Cc1ccccc1)NC(=O)[C@@H](NC(=O)[C@H](CC(C)C)NC(=O)[C@H](CCC(N)=O)NC(=O)[C@H](CC(=O)O)NC(=O)[C@H](CCC(=O)O)NC(=O)[C@@H](N)Cc1ccccc1)C(C)C)C(=O)N[C@@H](CO)C(=O)N[C@@H](C)C(=O)N[C@@H](CCCNC(=N)N)C(=O)N[C@@H](C)C(=O)N[C@@H](CC(C)C)C(=O)N[C@@H](CCCCN)C(=O)N[C@@H](C)C(=O)N[C@@H](Cc1ccc(O)cc1)C(=O)N[C@@H](Cc1ccccc1)C(=O)N[C@H](C(=O)N[C@@H](C)C(=O)O)[C@@H](C)O` [Peptide 345] gave an IC50 of 8 ± 0.3 nM.

`CC[C@H](C)[C@H](NC(=O)[C@H](C)NC(=O)[C@H](CC(C)C)NC(=O)[C@H](CO)NC(=O)[C@H](CC(N)=O)NC(=O)[C@H](CC(C)C)NC(=O)[C@H](Cc1ccccc1)NC(=O)[C@H](CCCNC(=N)N)NC(=O)[C@H](CCSC)NC(=O)[C@H](CC(=O)O)NC(=O)[C@H](Cc1ccccc1)NC(=O)[C@H](CCC(N)=O)NC(=O)CNC(=O)[C@@H](NC(=O)[C@@H](N)Cc1ccc(O)cc1)[C@@H](C)CC)C(=O)N[C@@H](Cc1c[nH]cn1)C(=O)N[C@@H](CCC(=O)O)C(=O)N[C@@H](CCCCN)C(=O)N[C@@H](Cc1ccccc1)C(=O)N[C@@H](CC(=O)O)C(=O)N[C@@H](C)C(=O)O` [Peptide 314] had a concentration for half-maximal inhibition (IC50) of 4 ± 1 nM.

In the case of `CC(C)C[C@H](NC(=O)[C@H](Cc1ccc(O)cc1)NC(=O)[C@H](CCCNC(=N)N)NC(=O)CNC(=O)[C@H](CCC(=O)O)NC(=O)[C@H](CCCCN)NC(=O)[C@@H](NC(=O)[C@@H](N)CC(N)=O)[C@@H](C)O)C(=O)N[C@H](C(=O)N[C@@H](CC(C)C)C(=O)N[C@@H](CCCCN)C(=O)N[C@@H](C)C(=O)N[C@H](C(=O)N[C@@H](CCCCN)C(=O)N[C@H](C(=O)N[C@@H](CS)C(=O)N[C@@H](CC(=O)O)C(=O)N[C@H](C(=O)N[C@@H](CCCNC(=N)N)C(=O)N[C@H](C(=O)N[C@H](C(=O)O)C(C)C)[C@@H](C)O)C(C)C)C(C)C)C(C)C)C(C)C` [Peptide 301], the IC50 amounted to 190 ± 16 nM.

In turn, `CC[C@H](C)[C@H](NC(=O)[C@@H](NC(=O)[C@H](CC(C)C)NC(=O)[C@H](C)NC(=O)[C@@H](NC(=O)[C@H](CC(C)C)NC(=O)[C@H](C)NC(=O)[C@H](CC(C)C)NC(=O)[C@H](CC(C)C)NC(=O)[C@H](CCSC)NC(=O)[C@H](CCC(N)=O)NC(=O)[C@H](Cc1ccc(O)cc1)NC(=O)[C@H](CC(N)=O)NC(=O)[C@H](CCCNC(=N)N)NC(=O)[C@H](CO)NC(=O)[C@@H](NC(=O)[C@H](CC(C)C)NC(=O)[C@@H](N)CCCNC(=N)N)C(C)C)C(C)C)C(C)C)C(=O)N[C@H](C(=O)N[C@@H](CC(C)C)C(=O)N[C@H](C(=O)O)[C@@H](C)O)[C@@H](C)O` [Peptide 310] showed an IC50 of 660 ± 25 nM.

The molecule `CC[C@H](C)[C@H](NC(=O)[C@H](C)NC(=O)[C@H](CCCNC(=N)N)NC(=O)[C@@H](NC(=O)[C@@H](NC(=O)[C@@H](NC(=O)[C@H](Cc1ccccc1)NC(=O)[C@H](Cc1c[nH]c2ccccc12)NC(=O)[C@H](Cc1ccccc1)NC(=O)[C@H](CO)NC(=O)[C@H](CC(N)=O)NC(=O)[C@@H]1CCCN1C(=O)[C@@H](N)CCCNC(=N)N)C(C)C)C(C)C)C(C)C)C(=O)N[C@@H](C)C(=O)N[C@@H](CO)C(=O)N[C@@H](CCSC)C(=O)N[C@H](C(=O)N[C@@H](CCSC)C(=O)N[C@@H](Cc1ccc(O)cc1)C(=O)N[C@@H](CC(C)C)C(=O)N[C@H](C(=O)O)C(C)C)[C@@H](C)CC` [Peptide 304] showed an IC50 of 4000 nM.

Molecule `CC[C@H](C)[C@H](N)C(=O)N1CCC[C@H]1C(=O)N[C@@H](CC(C)C)C(=O)N[C@@H](CO)C(=O)N[C@@H](CCC(=O)O)C(=O)N[C@@H](CCSC)C(=O)N[C@H](C(=O)N[C@H](C(=O)N[C@@H](CCCCN)C(=O)N[C@@H](CC(C)C)C(=O)N[C@H](C(=O)N[C@@H](C)C(=O)N[C@H](C(=O)N[C@@H](CS)C(=O)N[C@@H](CCSC)C(=O)N[C@@H](CCCCN)C(=O)N[C@@H](CS)C(=O)N[C@@H](Cc1ccccc1)C(=O)N[C@@H](CCCCN)C(=O)N[C@@H](CCC(=O)O)C(=O)N[C@@H](C)C(=O)O)C(C)C)[C@@H](C)O)C(C)C)C(C)C` [Peptide 305] came in with an IC50 of 29 ± 10 nM. Against the preceding molecule, the IC50 is about 140-fold lower.

`CC[C@H](C)[C@H](N)C(=O)N[C@@H](CCCCN)C(=O)N[C@@H](CCCNC(=N)N)C(=O)NCC(=O)N[C@@H](CC(C)C)C(=O)N[C@@H](Cc1ccccc1)C(=O)N[C@@H](Cc1ccccc1)C(=O)N[C@@H](CC(C)C)C(=O)N[C@@H](CCCNC(=N)N)C(=O)N[C@@H](CC(C)C)C(=O)N[C@@H](CO)C(=O)N[C@@H](C)C(=O)N[C@@H](CC(N)=O)C(=O)N[C@@H](CC(C)C)C(=O)N[C@@H](Cc1ccccc1)C(=O)N[C@@H](CCC(=O)O)C(=O)N[C@@H](CO)C(=O)N[C@@H](CCC(N)=O)C(=O)N[C@H](C(=O)N[C@@H](CO)C(=O)N[C@@H](CO)C(=O)O)C(C)C` [Peptide 333]: the IC50 was 68 ± 14 nM.

The molecule `CC[C@H](C)[C@H](N)C(=O)N[C@@H](Cc1ccccc1)C(=O)N[C@@H](CCCCN)C(=O)N[C@@H](CC(N)=O)C(=O)N[C@@H](CC(N)=O)C(=O)N[C@@H](CC(=O)O)C(=O)N[C@H](C(=O)N[C@@H](CCCNC(=N)N)C(=O)N[C@H](C(=O)N[C@@H](CC(C)C)C(=O)N[C@@H](CC(C)C)C(=O)NCC(=O)N[C@@H](CC(C)C)C(=O)N[C@H](C(=O)N[C@@H](CC(C)C)C(=O)N[C@@H](Cc1ccccc1)C(=O)N[C@H](C(=O)N[C@@H](CC(C)C)C(=O)N[C@@H](C)C(=O)N[C@@H](CC(C)C)C(=O)N[C@@H](Cc1ccc(O)cc1)C(=O)O)C(C)C)[C@@H](C)CC)[C@@H](C)O)C(C)C` [Peptide 322] registered a 50% inhibitory concentration (IC50) of 1270 nM. Compared with the last molecule, the IC50 is about 19-fold higher.

Consider `CC[C@H](C)[C@H](NC(=O)[C@H](Cc1ccc(O)cc1)NC(=O)CNC(=O)[C@H](C)NC(=O)[C@H](CC(C)C)NC(=O)[C@H](CCC(N)=O)NC(=O)[C@H](Cc1ccc(O)cc1)NC(=O)[C@H](Cc1ccc(O)cc1)NC(=O)[C@@H](NC(=O)[C@@H](NC(=O)[C@H](CC(C)C)NC(=O)[C@H](Cc1c[nH]cn1)NC(=O)[C@@H](NC(=O)[C@H](C)N)C(C)C)[C@@H](C)CC)[C@@H](C)CC)C(=O)N[C@@H](CC(C)C)C(=O)N[C@H](C(=O)N[C@H](C(=O)N[C@@H](CC(C)C)C(=O)NCC(=O)N[C@@H](CC(C)C)C(=O)NCC(=O)O)C(C)C)[C@@H](C)O` [Peptide 323], for which it took 2170 nM to reach half-maximal inhibition (IC50).

`CC[C@H](C)[C@H](N)C(=O)N[C@@H](CC(C)C)C(=O)N[C@@H](CCCCN)C(=O)N[C@@H](CO)C(=O)N[C@@H](CC(C)C)C(=O)NCC(=O)N[C@@H](Cc1ccccc1)C(=O)N[C@@H](CCCCN)C(=O)N[C@H](C(=O)N[C@@H](CC(C)C)C(=O)N[C@@H](CC(=O)O)C(=O)NCC(=O)N[C@@H](CO)C(=O)N1CCC[C@H]1C(=O)N[C@H](C(=O)N[C@@H](CO)C(=O)N[C@@H](CC(C)C)C(=O)N[C@@H](CCCNC(=N)N)C(=O)N[C@@H](Cc1ccc(O)cc1)C(=O)NCC(=O)N[C@@H](CO)C(=O)O)[C@@H](C)CC)C(C)C` [Peptide 306] came in with a concentration for half-maximal inhibition (IC50) of 5 ± 1 nM.

On to `CC[C@H](C)[C@H](NC(=O)[C@H](CCCNC(=N)N)NC(=O)[C@H](CO)NC(=O)CNC(=O)[C@H](CCC(N)=O)NC(=O)[C@H](CCC(=O)O)NC(=O)[C@@H](NC(=O)CNC(=O)[C@H](CC(C)C)NC(=O)[C@@H]1CCCN1C(=O)[C@H](CCCCN)NC(=O)[C@H](CCSC)NC(=O)[C@H](CC(C)C)NC(=O)[C@H](CC(C)C)NC(=O)[C@H](CC(C)C)NC(=O)[C@H](CC(N)=O)NC(=O)[C@H](Cc1ccccc1)NC(=O)[C@H](CCSC)NC(=O)[C@H](CC(=O)O)NC(=O)[C@H](Cc1ccc(O)cc1)NC(=O)[C@@H](N)CO)[C@@H](C)CC)C(=O)O` [Peptide 337], for which the IC50 came out at 28 ± 6 nM.
